According to patent US20220401617A1, “ADHESIVE COMPOSITIONS COMPRISING THERAPEUTICS” (RevBio, Inc., priority 2019, published 2022):
Structures can show the parent of a compound that is named as a salt.

Experiments:
[1] = type: physicochemical
Procedure: Several formulations of compositions comprising pain relievers (e.g., locally acting analgesics (e.g., naproxen and diclofenac) or local anesthetics (e.g. bupivacaine and articaine) were investigated for their affinity to the adhesive composition. The affinity of the therapeutic depends on the nature of the therapeutic and its interaction with the composition. This is measured as the partition coefficient which is the ratio of the amount of drug released from the composition to the ratio of the amount of drug retained in the composition under specific conditions.
The specific composition (e.g., adhesive composition) comprised 400 mg tetracalcium phosphate, 250 mg phosphoserine (a compound in FIG. 1V-a), and 135 μl of water that was prepared by mixing for 30 seconds, after which the mixture was formed into standard spherical substrates and allowed to cure. The substrate was then crushed using a mortar and pestle and used as a control. For the composition comprising a therapeutic, 1% w/w of the therapeutic was added to the tetracalcium phosphate and phosphoserine powder blend. The therapeutic was thoroughly mixed with tetracalcium phosphate and phosphoserine, after which deionized water was added and mixed for 30 seconds. Standard spherical substrates approximately 8 mm in diameter of adhesive composition were prepared. After curing, the substrate was crushed using mortar and pestle and the samples were incubated in 50 mL 1× PBS solution for 18 hours at 37° C. The partition coefficient of the therapeutic was evaluated using high-pressure liquid chromatography (HPLC) as shown in Table 3 below.

[2] = Release of bupivacaine from porous adhesive composition formulation (HPLC elution); type: physicochemical; conditions: 10% w/w drug, 50 mL 1x PBS, 7-day period, 37° C.
Procedure: Several formulations of compositions comprising pain relievers (e.g., local anesthetics (e.g. bupivacaine)) were investigated. […] The release study was analyzed using elution studies, where HPLC was used to analyze the amount of pain reliever released over time. The elution profile of bupivacaine from a porous adhesive composition matrix was analyzed over a 7-day period.
The particle size of calcium carbonate was between 15 nm to 40 nm. This formulation was used a control for the study. […] A bupivacaine formulation was tested by adding 10% w/w of the drug to the tetracalcium phosphate and phosphoserine powder blend. Standard spherical substrates of approximately 8 mm in diameter of porous adhesive bone regenerative were prepared. After curing, the samples were incubated in 50 mL 1× PBS solution for 7-days at 37° C.

[3] = 8% w/w naproxen, ssNMR
[4] = Properties of exemplary adhesive compositions (compound + tetra-calcium phosphate + water); type: physicochemical; conditions: mixed with tetra-calcium phosphate and water
Procedure: Exemplary adhesive compositions were prepared by providing the compounds listed in Table 1 and tetra-calcium phosphate in a suitable receptacle and mixing with water to achieve the desired consistency. While water was used as the aqueous medium in the present compositions, the aqueous medium may instead be blood, saliva, serum, or a blood-based solution or suspension. In the present compositions, the solid components (compounds, tetra-calcium phosphate) were provided as particles. However, the solid components listed in the table may be provided in particle, granule, or fiber form, and the size of each of the components may vary as described in the Detailed Description. In some embodiments, the resulting properties, such as working and setting time, may be affected by these changes. The specific mean particle, granule, or fiber size for each solid component was selected to satisfy the use requirements as described in each of the embodiments.
The compounds comprising glyphosine, O-Phospho-L-serine (OPLS), […] […] After mixing, the compositions described were applied to the desired site and the adhesive properties examined, e.g., for tensile strength and durability.

[5] = Retention/elution of gentamicin from adhesive composition matrix (HPLC); type: physicochemical; conditions: 2.5% w/w or 5% w/w gentamicin, PBS, 37° C., 10 days incubation
Procedure: Several formulations of compositions comprising antibiotics (AB) were investigated. The retention of the AB within the compositions may avoid or prevent bacterial colonization on or within the cured adhesive composition or any post-operative infection that could develop. The retention study was analyzed using elution studies, wherein high-pressure liquid chromatography (HPLC) was used to analyze the amount of AB released over time. Particularly, the elution profile of gentamicin from adhesive composition matrix was analyzed at days 1, 3, 5 and 10.
Several compositions were tested by adding either 2.5% w/w or 5% w/w of gentamicin to the tetracalcium phosphate and phosphoserine powder blend. Each cylinder was immersed in a polypropylene tube with 5 ml phosphate buffered saline (PBS) and shaken in a rotator at 37° C. Over the study period of 10 days, daily transfer of the cement cylinder into a test tube with PBS was conducted after saline washings. Elution samples of PBS was collected at various time points over a period of 10 days. The control was adhesive composition with no gentamicin, and the standard was different concentration of gentamicin alone.

Which Partition coefficient [1] does the source give for `CC(=O)Oc1ccccc1C(=O)O` [Aspirin] here?
Its Partition coefficient is 0.61.

With `CCCCN1CCCCC1C(=O)Nc1c(C)cccc1C` (stereo not drawn) [Bupivacaine•HCl] as the compound, how does the Partition coefficient [1] read?
The Partition coefficient was 0.37.

And the “% bupivacaine release, porous vs non-porous formulation” value [2]?
The value was “remarkable increase”.

Which Partition coefficient [1] does the source give for `O=C(O)Cc1ccccc1Nc1c(Cl)cccc1Cl` [Diclofenac•Na] here?
The Partition coefficient was 0.103.

With `CC(C)Cc1ccc(C(C)C(=O)O)cc1` (stereo not drawn) [Ibuprofen] as the compound, how does the Partition coefficient [1] read?
Its Partition coefficient is 0.

What does the source list for `COc1ccc2cc([C@H](C)C(=O)O)ccc2c1` [Naproxen]?
Elution of naproxen from the adhesive composition ([3]; crushed, 10 mL 1x PBS, 4-days, 37° C.): almost fully eluted; Modification of chemical structure upon inclusion in the adhesive composition [3]: no modification of the naproxen chemical structure

With `N[C@@H](COP(=O)(O)O)C(=O)O` [O-Phospho-L-serine, O-Phospho-L-Serine] as the compound, how does the “Properties of the adhesive composition prepared with the compound” value (shortened to “Properties”) [4] read?
The value was “injectable, adhesive, tacky, and self-setting”.

Which “Properties” value [4] does the source give for `O=P(O)(O)CN(CP(=O)(O)O)CP(=O)(O)O` [aminotris(methylenephosphonic acid), (Nitrilotris(methylene)) triphosphonic acid] here?
Its value is “injectable, adhesive, tacky, and self-setting”.

Which “Properties” value [4] does the source give for `O=C(O)CN(CCN(CC(=O)O)CC(=O)O)CC(=O)O` [ethylenediaminetetraacetic acid, Ethylenediamine tetraacetic acid] here?
The value was “injectable, adhesive, tacky, and self-setting”.

For `O=C(O)CN(CP(=O)(O)O)CP(=O)(O)O` [glyphosine, N,N-Bis(phosphonomethyl)glycine], which “Properties” value [4] is on record?
Its value is “injectable, adhesive, tacky, and self-setting”.

With gentamicin as the compound, how does the “Retention of gentamicin in the adhesive composition” value [5] read?
The value was “most of gentamicin was retained”.
